Laboratory results: the kinase profiling compilation of Christmann-Franck et al. (2016)

Assays:
Test in all cases: KINOMEscan competition binding
Conditions in all cases: compound 10.0 µM
RPS6KA3 KD2 (human) = RPS6KA3 KD2 (human) (UniProt P51812)
[1] = system: ALK (human), Q9UM73 [C1156Y]
[2] = system: ALK (human), Q9UM73 [L1196M]
NEK10 (human) = NEK10 (human) (UniProt Q6ZWH5)
Sequence of NEK10 (human) (Q6ZWH5 whole entry, looked up): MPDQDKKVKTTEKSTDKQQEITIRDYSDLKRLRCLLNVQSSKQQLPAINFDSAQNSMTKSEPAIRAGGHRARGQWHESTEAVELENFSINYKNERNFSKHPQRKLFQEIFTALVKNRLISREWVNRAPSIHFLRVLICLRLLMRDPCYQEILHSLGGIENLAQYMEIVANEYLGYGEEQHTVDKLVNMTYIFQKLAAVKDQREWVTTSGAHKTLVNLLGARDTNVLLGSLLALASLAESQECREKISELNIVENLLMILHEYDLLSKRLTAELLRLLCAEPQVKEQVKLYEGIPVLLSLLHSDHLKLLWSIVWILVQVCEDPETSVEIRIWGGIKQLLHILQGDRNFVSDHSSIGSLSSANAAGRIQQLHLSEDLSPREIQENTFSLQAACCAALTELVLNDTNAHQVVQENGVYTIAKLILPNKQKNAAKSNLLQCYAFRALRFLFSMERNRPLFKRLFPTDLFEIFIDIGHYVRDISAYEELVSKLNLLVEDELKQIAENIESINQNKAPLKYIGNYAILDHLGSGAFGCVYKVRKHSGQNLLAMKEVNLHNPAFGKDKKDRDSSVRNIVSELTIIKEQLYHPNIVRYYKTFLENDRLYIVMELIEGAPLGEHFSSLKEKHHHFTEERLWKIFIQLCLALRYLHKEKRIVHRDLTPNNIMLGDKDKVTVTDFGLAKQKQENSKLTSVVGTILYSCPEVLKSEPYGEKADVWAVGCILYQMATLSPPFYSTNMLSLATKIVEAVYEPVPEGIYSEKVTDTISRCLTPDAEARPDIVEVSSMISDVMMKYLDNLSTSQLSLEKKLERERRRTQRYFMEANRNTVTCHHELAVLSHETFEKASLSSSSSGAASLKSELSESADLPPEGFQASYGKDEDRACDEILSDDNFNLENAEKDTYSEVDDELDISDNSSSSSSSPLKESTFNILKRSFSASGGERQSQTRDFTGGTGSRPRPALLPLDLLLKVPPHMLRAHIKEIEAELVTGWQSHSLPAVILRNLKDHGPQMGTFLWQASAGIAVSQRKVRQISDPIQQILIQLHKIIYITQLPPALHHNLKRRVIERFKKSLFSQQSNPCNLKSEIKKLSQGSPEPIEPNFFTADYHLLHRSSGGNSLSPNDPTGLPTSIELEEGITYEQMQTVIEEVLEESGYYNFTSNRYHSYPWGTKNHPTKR

Sequence of RPS6KA3 KD2 (human) (P51812 whole entry, looked up): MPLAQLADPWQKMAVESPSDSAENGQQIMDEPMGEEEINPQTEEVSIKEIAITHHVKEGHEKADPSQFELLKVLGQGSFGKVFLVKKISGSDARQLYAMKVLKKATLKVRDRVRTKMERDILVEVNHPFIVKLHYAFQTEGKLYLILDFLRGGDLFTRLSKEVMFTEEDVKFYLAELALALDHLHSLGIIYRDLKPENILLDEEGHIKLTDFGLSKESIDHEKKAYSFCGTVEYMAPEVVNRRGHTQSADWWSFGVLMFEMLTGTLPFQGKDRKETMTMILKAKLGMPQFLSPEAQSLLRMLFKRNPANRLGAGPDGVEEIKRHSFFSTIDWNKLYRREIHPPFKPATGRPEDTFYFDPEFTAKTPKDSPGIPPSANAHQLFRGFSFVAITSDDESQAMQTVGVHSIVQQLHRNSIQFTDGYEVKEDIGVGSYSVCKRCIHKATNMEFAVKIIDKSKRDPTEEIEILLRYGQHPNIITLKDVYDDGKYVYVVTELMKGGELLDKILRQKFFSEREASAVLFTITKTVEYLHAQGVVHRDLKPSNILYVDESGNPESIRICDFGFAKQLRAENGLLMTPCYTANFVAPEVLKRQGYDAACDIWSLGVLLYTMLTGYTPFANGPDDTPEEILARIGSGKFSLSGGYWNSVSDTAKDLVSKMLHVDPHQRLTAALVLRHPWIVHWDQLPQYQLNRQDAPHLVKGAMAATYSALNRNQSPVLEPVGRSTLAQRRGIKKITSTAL
Sequence of ALK (human), Q9UM73 [C1156Y] (Q9UM73 whole entry C1156Y, looked up): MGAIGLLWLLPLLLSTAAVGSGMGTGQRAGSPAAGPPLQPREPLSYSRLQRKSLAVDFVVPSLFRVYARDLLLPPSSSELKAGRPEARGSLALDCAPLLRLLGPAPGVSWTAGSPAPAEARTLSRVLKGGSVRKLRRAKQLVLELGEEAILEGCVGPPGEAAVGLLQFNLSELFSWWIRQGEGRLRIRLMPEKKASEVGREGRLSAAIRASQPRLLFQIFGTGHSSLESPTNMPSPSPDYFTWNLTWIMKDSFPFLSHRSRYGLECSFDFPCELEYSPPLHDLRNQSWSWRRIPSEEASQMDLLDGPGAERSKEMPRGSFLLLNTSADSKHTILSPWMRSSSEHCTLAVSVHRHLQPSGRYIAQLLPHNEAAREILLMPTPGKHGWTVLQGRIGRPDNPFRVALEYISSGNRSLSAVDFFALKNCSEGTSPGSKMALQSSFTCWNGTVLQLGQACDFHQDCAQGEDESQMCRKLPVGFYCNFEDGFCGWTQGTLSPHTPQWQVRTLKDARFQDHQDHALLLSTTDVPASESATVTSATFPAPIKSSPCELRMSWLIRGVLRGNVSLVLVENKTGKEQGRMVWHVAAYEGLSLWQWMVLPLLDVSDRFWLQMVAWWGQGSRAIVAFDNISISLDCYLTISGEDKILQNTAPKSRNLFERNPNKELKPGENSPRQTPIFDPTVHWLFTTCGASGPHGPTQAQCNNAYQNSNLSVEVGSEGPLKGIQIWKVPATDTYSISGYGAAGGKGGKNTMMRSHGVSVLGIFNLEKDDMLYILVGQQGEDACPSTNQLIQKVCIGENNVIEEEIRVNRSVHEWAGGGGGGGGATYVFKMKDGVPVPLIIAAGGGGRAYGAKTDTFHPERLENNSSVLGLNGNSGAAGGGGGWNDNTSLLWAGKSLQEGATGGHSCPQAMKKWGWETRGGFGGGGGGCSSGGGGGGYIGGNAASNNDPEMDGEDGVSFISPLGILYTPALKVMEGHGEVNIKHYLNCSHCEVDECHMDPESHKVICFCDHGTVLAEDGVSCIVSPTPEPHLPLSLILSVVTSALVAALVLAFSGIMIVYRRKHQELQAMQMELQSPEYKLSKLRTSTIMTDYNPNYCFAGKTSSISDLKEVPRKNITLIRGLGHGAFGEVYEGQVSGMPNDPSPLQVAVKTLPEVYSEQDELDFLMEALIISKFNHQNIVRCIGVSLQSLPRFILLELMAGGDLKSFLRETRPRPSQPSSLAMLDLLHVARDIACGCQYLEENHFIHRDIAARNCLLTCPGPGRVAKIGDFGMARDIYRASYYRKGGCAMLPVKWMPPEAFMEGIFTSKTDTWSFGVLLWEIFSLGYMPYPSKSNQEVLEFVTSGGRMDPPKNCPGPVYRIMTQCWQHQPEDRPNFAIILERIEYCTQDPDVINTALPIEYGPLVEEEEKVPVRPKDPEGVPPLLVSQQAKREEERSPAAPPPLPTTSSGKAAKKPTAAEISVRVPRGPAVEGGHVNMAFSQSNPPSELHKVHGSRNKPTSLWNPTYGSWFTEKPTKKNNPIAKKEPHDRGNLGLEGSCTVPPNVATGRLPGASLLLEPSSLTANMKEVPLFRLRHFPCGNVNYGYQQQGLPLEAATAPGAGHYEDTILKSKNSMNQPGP
Sequence of ALK (human), Q9UM73 [L1196M] (Q9UM73 whole entry L1196M, looked up): as the sequence (Q9UM73 whole entry C1156Y, looked up) above, with Y1156C, L1196M counted along it

Molecule N#CCNC(=O)c1ccc(-c2ccnc(Nc3ccc(N4CCOCC4)cc3)n2)cc1 has a kinase still bound, per cent of control (RPS6KA3 KD2 (human)) of 100%.

Work on O=C1NC(=O)/C(=C/c2ccc3nccc(-c4ccncc4)c3c2)S1 yielded a kinase still bound, per cent of control [1] of 42%, a kinase still bound, per cent of control [2] of 45% and a kinase still bound, per cent of control (NEK10 (human)) of 0%. It also gave a kinase still bound, per cent of control (RPS6KA3 KD2 (human)) of 70%.
